# Measured values taken from ChEMBL document CHEMBL4334461, “Taicrypnacids A and B, a Pair of C37 Heterodimeric Diterpenoid Stereoisomers from Taiwania cryptomerioides” (J Nat Prod, 2019).
# Active and inactive are the calls of the source. No cut-off for these calls is given here.
# Key:
# MCF7 [1] = assay: Cytotoxicity against human MCF7 cells measured after 24 hrs by MTT assay; assay type: functional, cell-based; conditions: MCF7, 24 h
# U2OS = assay: Cytotoxicity against human U2OS cells measured after 24 hrs by MTT assay; assay type: functional, cell-based
# HCT-116 = assay: Cytotoxicity against human HCT116 cells measured after 24 hrs by MTT assay; assay type: functional, cell-based; conditions: HCT-116, 24 h
# MCF7 [2] = assay: Induction of endoplasmic reticular stress in human MCF7 cells assessed as upregulation of XBP1s by Western blot analysis; assay type: functional, cell-based
# MCF7 [3] = assay: Induction of endoplasmic reticulum vacuolation in human MCF7 cells assessed as increase in vacuole formation at 5 to 20 uM measured after 24 hrs by ER-tracker and Hoechst 33342 staining based confocal microscopy; assay type: functional, cell-based
# MCF7 [4] = assay: Induction of apoptosis in human MCF7 cells assessed as activation of cleaved caspase-9; assay type: functional, cell-based
# MCF7 [5] = assay: Induction of apoptosis in human MCF7 cells assessed as activation of cleaved PARP; assay type: functional, cell-based
# MCF7 [6] = assay: Induction of cell death in human MCF7 cells assessed as increase in ROS level measured after 24 hrs by DCFHDA probe based flow cytometry; assay type: functional
# MCF7 [7] = assay: Induction of endoplasmic reticular stress in human MCF7 cells assessed as upregulation of GRP78 by Western blot analysis; assay type: functional, cell-based
# MCF7 [8] = assay: Induction of mitochondria-mediated apoptosis in human MCF7 cells; assay type: functional, cell-based
# MCF7 [9] = assay: Induction of apoptosis in human MCF7 cells assessed as activation of cleaved caspase-3; assay type: functional, cell-based
# MCF7 [10] = assay: Induction of endoplasmic reticular stress in human MCF7 cells assessed as upregulation of CHOP by Western blot analysis; assay type: functional, cell-based
# MCF7 [11] = assay: Induction of morphological changes in human MCF7 cells assessed as change in vacuole at 5 to 20 uM measured after 24 hrs by optical microscopy analysis; assay type: functional, cell-based
# MCF7 [12] = assay: Induction of ROS-mediated autophagy in human MCF7 cells assessed as increase in autophagosome numbers; assay type: functional, cell-based
# MCF7 [13] = assay: Induction of ROS-mediated autophagy in human MCF7 cells assessed as increase in LC3-2/LC3-1 ratio; assay type: functional, cell-based
# MCF-10A = assay: Cytotoxicity against human MCF10A cells at 3.125 to 50 uM measured after 24 hrs by MTT assay; assay type: cell-based
# MCF7 [14] = assay: Induction of endoplasmic reticular stress in human MCF7 cells assessed as upregulation of IRE1a by Western blot analysis; assay type: functional, cell-based
# MCF7 [15] = assay: Induction of mitochondrial morphological changes in human MCF7 cells assessed as dilation of mitochondria at 5 to 20 uM measured after 24 hrs by Mito-tracker and Hoechst 33342 staining based confocal microscopy; assay type: functional, cell-based
# MCF7 [16] = assay: Induction of apoptosis in human MCF7 cells assessed as activation of cleaved caspase-7; assay type: functional, cell-based
# MCF7 [17] = assay: Induction of cell death in human MCF7 cells assessed as increase in intracellular calcium measured after 24 hrs by Fluo-4/AM probe based confocal microscopic analysis; assay type: functional
# MCF7 [18] = assay: Induction of ROS-mediated autophagy in human MCF7 cells assessed as downregulation of p62; assay type: functional, cell-based
structure (smiles),measurement,setting,value
C=C1CC[C@@H]2[C@](C)(CCC[C@@]2(C)C(=O)O)[C@H]1C/C=C(\C)[C@H]1C[C@H]2C[C@H]3C(C)(C)CCC[C@]3(C)c3ccc(O)c(c32)O1,IC50,MCF7 [1],9.9 µM
same,IC50,U2OS,9.7 µM
same,IC50,HCT-116,7.8 µM
C=C1CC[C@@H]2[C@](C)(CCC[C@@]2(C)C(=O)OC)[C@H]1C/C=C(\C)[C@@H]1C[C@@H]2C[C@H]3C(C)(C)CCC[C@]3(C)c3ccc(O)c(c32)O1,IC50,MCF7 [1],> 50 µM
same,IC50,U2OS,> 50 µM
same,IC50,HCT-116,> 50 µM
C=C1CC[C@@H]2[C@](C)(CCC[C@@]2(C)C(=O)O)[C@H]1C/C=C(\C)[C@@H]1C[C@@H]2C[C@H]3C(C)(C)CCC[C@]3(C)c3ccc(O)c(c32)O1,Activity,MCF7 [2],Active
same,Activity,MCF7 [3],Active
same,Activity,MCF7 [4],Active
same,Activity,MCF7 [5],Active
same,Activity,MCF7 [6],Dose-dependent effect
same,IC50,MCF7 [1],7.4 µM
same,Activity,MCF7 [7],Active
same,Activity,MCF7 [8],Active
same,Activity,MCF7 [9],Active
same,Activity,MCF7 [10],Active
same,Activity,MCF7 [11],Active
same,Activity,MCF7 [12],Active
same,Activity,MCF7 [13],Active
same,IC50,U2OS,8.4 µM
same,IC50,HCT-116,7.5 µM
same,Activity,MCF-10A,Toxic
same,Activity,MCF7 [14],Active
same,Activity,MCF7 [15],Active
same,Activity,MCF7 [16],Active
same,Activity,MCF7 [17],Dose-dependent effect
same,Activity,MCF7 [18],Active
